T1: Solute carrier family 22 member 6 (Rattus norvegicus, UniProt O35956)
T1 sequence (O35956 whole entry): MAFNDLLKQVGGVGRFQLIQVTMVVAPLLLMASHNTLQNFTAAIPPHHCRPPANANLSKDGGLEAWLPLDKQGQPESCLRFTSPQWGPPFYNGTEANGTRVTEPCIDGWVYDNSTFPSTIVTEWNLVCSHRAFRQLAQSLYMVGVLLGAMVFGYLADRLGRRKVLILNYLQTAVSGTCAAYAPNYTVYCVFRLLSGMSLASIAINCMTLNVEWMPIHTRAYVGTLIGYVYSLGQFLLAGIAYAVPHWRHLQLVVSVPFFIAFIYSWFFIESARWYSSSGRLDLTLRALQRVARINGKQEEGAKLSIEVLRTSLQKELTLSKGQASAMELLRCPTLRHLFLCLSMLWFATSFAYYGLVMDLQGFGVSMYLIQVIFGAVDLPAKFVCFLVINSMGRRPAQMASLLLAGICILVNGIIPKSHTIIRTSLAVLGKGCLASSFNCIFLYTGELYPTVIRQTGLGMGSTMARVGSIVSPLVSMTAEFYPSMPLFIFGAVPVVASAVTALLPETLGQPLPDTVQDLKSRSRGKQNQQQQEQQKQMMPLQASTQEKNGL

B1: Solute carrier family 22 member 6 (Rattus norvegicus) (protein)
chain: T1 sequence (O35956 whole entry)

Columns and labels:
[1] = target: T1, Solute carrier family 22 member 6; assay: TP_TRANSPORTER: inhibition of PAH uptake (PAH: 50 uM, Urate; 1000 uM) in Xenopus laevis oocytes; type: functional, cell-based; conditions: oocyte
[2] = substrate: Nc1ccc(C(=O)NCC(=O)O)cc1; assay: cells, lysate or membranes named

Molecule	Activity [1]	Km [2] [µM]
O=c1[nH]c(=O)c2[nH]c(=O)[nH]c2[nH]1 [URIC ACID]	is not an inhibitor [-]	
B1		70
